Reference: ChEMBL document CHEMBL1201862, “PubChem BioAssay data set” (2004)
The source made the active and inactive calls.

What was measured:
[1] = biological target: DNA dC->dU-editing enzyme APOBEC-3G (Homo sapiens, UniProt Q9HC16); assay: Dose Response confirmation of small molecule APOBEC3G DNA Deaminase Inhibitors via a fluorescence-based single-stranded DNA deaminase assay. [Related pubchem assays (depositor defined):AID493012, AID493028]; type: functional
cells [2] = type: functional, cell-based
cells [3] = type: functional, cell-based; remark: listed apart in the source
[4] = tested on: Streptococcus sp. 'group A'; assay: growth inhibition of control SK(-) GAS strain, dose response, counter-screen for streptokinase expression inhibitor project, luminescence, kanamycin, BacTiterGlo, confirmation (AID 1900); type: functional, organism-based
Streptokinase A = biological target: T1, Streptokinase A (Streptococcus pyogenes serotype M1, UniProt P10520); assay: S. pyogenes streptokinase expression inhibitors, potency, dose response, plasminogen activation absorbance, OD405 (AID 1914); type: functional, Streptococcus pyogenes M1 GAS;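 further: secreted streptokinase activity via plasminogen activation per viability signal from cell pellet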
T1 sequence (P10520 whole entry): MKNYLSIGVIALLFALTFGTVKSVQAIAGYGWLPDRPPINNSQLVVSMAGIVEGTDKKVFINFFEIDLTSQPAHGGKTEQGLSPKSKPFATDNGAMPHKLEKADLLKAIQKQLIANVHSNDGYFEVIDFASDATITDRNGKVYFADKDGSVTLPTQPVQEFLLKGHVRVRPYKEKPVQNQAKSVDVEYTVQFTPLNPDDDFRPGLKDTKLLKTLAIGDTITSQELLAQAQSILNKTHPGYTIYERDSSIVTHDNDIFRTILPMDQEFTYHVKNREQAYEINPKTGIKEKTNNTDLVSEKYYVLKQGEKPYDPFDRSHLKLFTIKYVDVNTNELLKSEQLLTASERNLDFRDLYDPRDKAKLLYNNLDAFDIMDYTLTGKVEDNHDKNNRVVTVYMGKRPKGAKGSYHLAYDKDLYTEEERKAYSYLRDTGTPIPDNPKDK

Streptococcus = assay: Group A Streptococcus viability loss, dose response, counter-screen for streptokinase expression inhibitor project, luminescence, BacTiterGlo (AID 1915); type: functional, organism-based;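 further: potency for reduction of bacterial viability or growth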
Protein skinhead-1 = biological target: T2, Protein skinhead-1 (Caenorhabditis elegans, UniProt P34707); type: functional
T2 sequence (P34707 whole entry): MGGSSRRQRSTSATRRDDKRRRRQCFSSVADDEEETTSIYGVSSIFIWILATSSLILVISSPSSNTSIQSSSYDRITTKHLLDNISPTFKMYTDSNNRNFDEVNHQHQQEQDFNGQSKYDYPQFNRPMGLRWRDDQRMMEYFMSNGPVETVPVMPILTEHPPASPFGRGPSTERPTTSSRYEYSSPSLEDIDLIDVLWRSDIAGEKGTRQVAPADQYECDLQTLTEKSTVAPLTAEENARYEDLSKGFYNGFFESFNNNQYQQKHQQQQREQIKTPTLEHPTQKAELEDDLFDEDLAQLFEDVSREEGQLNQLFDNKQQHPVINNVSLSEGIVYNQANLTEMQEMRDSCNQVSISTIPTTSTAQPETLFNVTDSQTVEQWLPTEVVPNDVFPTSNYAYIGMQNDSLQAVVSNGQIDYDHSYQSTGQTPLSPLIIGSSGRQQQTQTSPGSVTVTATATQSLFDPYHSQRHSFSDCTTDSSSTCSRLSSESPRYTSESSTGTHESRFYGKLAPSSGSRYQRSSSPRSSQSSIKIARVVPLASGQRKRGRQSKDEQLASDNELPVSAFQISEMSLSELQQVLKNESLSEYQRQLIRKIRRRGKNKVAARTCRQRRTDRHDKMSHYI

[5] = cytotoxicity in HEK-293T cells, dose response, cytotoxicity control for BCR NF-kB inhibitor project, luminescence, B-cell screen hits (AID 489021); type: functional, cell-based;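 further: HEK-293T cells carrying an NF-kB luciferase reporter; cells exposed to compound for about 14 hours before viability readout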
[6] = biological target: T3, Endoribonuclease toxin MazF (Escherichia coli K-12, UniProt P0AE70); assay: MazF toxin RNase activators, dose response, biochemical, fluorescence, single-stranded RNA substrate, uHTS hits (AID 588481); type: functional
T3 sequence (P0AE70 whole entry): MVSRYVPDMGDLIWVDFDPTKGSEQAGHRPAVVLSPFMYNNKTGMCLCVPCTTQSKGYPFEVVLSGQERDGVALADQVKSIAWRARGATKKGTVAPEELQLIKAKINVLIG

[7] = biological target: T3, Endoribonuclease toxin MazF; assay: fluorescent RNA oligo signal without MazF, dose response, counter-screen for MazEF activator project, biochemical, fluorescence, single-stranded RNase substrate (AID 588502); type: functional
[8] = biological target: Luciferin 4-monooxygenase (Photinus pyralis, UniProt P08659); assay: firefly luciferase enzyme inhibitors, dose response, biochemical, luminescence (AID 1891)
[9] = Luminescence Cell-Based Dose Confirmation HTS to Identify Inhibitors of Platelet Dense Granule Release. [Related pubchem assays: 1663 (Primary HTS), 1678 (Summary of Project)]; type: functional
[10] = biological target: T4, Microphthalmia-associated transcription factor (Homo sapiens, UniProt O75030); assay: TRPM1 promoter luciferase signal decrease, dose response, MITF inhibitor project, cell-based, SK-MEL-5, cherry-picked, set 3 (AID 493073); type: functional
T4 sequence (O75030 whole entry): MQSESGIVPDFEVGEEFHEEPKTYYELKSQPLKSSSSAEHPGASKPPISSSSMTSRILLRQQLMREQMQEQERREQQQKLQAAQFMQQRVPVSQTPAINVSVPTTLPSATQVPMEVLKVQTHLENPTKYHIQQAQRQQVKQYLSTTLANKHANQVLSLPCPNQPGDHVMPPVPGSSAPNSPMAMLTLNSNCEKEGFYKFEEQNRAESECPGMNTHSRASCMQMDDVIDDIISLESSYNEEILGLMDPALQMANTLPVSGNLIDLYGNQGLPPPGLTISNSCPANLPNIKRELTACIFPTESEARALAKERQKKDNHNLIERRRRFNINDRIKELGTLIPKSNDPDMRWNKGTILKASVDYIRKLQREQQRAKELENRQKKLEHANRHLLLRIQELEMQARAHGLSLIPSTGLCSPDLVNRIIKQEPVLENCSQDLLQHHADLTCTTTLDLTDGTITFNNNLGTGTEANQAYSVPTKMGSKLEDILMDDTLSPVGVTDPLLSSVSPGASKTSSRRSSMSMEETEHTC

[11] = HEp-2 cell cytotoxicity, dose response, cytotoxicity control for RSV inhibitor project, HTS (AID 2410); type: functional; settings: human respiratory syncytial virus
Large T antigen = Large T antigen (Simian virus 40, UniProt P03070); type: functional, Betapolyomavirus macacae;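 further: Confirmatory-stage PubChem screen for compounds that inhibit SV40 T antigen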
[12] = biological target: FAD-linked sulfhydryl oxidase ALR (Homo sapiens, UniProt P55789); assay: inhibitors of human ALR sulfhydryl oxidase, dose response, biochemical, H2O2 detection, luminescence, cherry-pick (AID 493248)
[13] = biological target: T5, Rac GTPase-activating protein 1 (Homo sapiens, UniProt Q9H0H5); assay: MgcRacGAP GTPase-activating activity inhibitors, confirmation, biochemical, ADP Hunter fluorescence, primary and confirmatory (AID 624330); type: functional
T5 sequence (Q9H0H5 whole entry): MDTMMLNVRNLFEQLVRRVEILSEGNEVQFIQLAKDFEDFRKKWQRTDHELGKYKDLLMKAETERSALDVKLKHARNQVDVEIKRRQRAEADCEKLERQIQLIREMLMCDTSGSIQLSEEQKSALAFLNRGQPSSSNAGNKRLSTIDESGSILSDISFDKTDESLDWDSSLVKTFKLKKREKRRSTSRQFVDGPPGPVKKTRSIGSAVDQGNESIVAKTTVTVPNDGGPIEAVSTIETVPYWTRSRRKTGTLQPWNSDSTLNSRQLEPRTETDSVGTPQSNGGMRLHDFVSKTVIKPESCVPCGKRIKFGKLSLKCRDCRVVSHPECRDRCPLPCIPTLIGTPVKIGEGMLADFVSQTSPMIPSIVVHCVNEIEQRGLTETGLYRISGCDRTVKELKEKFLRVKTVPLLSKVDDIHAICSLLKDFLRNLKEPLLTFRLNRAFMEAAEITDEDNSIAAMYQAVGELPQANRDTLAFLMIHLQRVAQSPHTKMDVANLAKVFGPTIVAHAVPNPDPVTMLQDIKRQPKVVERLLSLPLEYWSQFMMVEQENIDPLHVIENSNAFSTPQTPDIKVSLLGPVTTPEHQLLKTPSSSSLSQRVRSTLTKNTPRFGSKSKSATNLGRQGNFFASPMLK

[14] = inhibitors of intracellular T. cruzi replication, confirmation, NIH3T3 host cells, beta-gal luminescence (AID 2044); type: functional, cell-based;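 further: intracellular parasites grown in NIH/3T3 mouse fibroblasts as host cells; luminescent beta-galactosidase reporter signal from transgenic T. cruzi replicating inside host cells; inhibitors lower the luminescence signal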
[15] = cytotoxicity toward NIH3T3 fibroblasts, dose response, counter-screen, cell-based, ATP luminescence, mouse fibroblasts (AID 2010); type: functional;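 further: cells exposed to compound for about 90 hours before reading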

Sequence of Large T antigen (P03070 whole entry): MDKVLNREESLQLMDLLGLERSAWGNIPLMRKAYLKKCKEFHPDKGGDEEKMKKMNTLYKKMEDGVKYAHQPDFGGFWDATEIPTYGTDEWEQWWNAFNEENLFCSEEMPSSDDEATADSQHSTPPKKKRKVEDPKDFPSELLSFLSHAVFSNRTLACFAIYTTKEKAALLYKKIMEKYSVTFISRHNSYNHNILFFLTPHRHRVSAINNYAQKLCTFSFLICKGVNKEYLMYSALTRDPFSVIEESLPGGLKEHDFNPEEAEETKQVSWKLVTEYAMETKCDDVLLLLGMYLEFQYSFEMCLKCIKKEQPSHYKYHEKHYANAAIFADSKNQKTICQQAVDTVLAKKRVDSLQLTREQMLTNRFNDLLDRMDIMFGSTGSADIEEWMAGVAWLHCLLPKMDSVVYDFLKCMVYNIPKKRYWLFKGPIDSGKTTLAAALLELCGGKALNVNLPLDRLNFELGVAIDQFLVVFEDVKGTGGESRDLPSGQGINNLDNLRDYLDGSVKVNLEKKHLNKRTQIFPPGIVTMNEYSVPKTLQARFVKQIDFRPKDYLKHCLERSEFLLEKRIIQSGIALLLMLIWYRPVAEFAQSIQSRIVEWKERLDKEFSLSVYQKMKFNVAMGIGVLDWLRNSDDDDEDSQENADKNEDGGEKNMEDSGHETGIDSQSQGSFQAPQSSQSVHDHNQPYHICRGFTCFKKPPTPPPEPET
Sequence of DNA dC->dU-editing enzyme APOBEC-3G (Q9HC16 whole entry): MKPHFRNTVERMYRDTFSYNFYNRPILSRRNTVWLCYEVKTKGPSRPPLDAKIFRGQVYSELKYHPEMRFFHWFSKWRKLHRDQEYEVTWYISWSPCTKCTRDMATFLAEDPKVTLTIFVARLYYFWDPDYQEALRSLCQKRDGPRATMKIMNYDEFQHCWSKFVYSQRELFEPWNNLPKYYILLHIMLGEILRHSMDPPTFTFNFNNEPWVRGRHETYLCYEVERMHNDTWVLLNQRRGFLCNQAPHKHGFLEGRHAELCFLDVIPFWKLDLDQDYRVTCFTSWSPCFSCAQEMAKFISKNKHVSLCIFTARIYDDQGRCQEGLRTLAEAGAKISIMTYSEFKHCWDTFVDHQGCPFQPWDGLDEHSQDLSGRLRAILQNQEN
Sequence of FAD-linked sulfhydryl oxidase ALR (P55789 whole entry): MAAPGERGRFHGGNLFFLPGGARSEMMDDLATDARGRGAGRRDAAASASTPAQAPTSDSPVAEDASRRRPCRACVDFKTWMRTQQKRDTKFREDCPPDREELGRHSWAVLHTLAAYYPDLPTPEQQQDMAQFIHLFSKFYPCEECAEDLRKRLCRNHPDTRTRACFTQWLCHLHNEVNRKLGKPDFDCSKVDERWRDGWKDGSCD
Sequence of Luciferin 4-monooxygenase (P08659 whole entry): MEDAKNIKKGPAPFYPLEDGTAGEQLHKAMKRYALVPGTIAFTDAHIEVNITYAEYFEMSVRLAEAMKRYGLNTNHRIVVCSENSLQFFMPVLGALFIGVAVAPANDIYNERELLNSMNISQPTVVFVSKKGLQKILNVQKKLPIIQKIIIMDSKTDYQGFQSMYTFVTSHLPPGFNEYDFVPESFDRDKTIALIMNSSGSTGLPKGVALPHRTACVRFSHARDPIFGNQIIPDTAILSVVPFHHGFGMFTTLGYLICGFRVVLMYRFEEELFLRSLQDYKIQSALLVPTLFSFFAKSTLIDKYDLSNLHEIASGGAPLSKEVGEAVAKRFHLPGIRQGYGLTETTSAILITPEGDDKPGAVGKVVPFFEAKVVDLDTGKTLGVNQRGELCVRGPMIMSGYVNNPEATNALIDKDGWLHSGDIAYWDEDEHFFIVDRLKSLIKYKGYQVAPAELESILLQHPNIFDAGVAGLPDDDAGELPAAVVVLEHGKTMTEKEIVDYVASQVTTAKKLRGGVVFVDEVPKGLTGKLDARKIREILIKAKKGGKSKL

With `COCCCN=C(S)NN=C(S)Nc1ccc(F)cc1F` the IC50 [1] was 10.1 µM (active).

With `CCOC(=O)Cc1nn(CC)c(=O)c2ccccc12` the EC50 (cells [2]) was > 350 µM (not active) and the EC50 (cells [3]) was > 350 µM (not active).

With `O=C1/C(=C/c2cccs2)CCC/C1=C\c1cccs1` the EC50 [4] was > 150 µM (not active), the EC50 (Streptokinase A) was 68.5 µM (active) and the EC50 (Streptococcus) was > 150 µM (not active). For the same molecule, the IC50 (Protein skinhead-1) was 95.2 µM (inactive).

With `Cc1nnc2c3ccccc3c(-c3ccccc3)nn12` the IC50 [5] was > 80 µM (inactive).

For `Nc1nnc(S)n1-c1ccc(Cl)cc1`, the IC50 [1] was 23.7 µM (active).

In the case of `O=C(Nc1ccccc1)c1ccc(NCCc2ccccc2)c([N+](=O)[O-])c1`, the EC50 [6] is reported as > 99 µM (inactive) and the EC50 [7] is reported as 84.3 µM (inactive).

With `CC(C)c1nnc(NC(=O)CCC(=O)NC2CC2)s1` the EC50 (cells [2]) was > 350 µM (not active), the EC50 [8] was > 112 µM (not active) and the EC50 [9] was > 112 µM (not active). The EC50 (cells [3]) was > 350 µM (not active).

With `FC(F)(F)c1ccc(CSc2ccccn2)cc1` the EC50 (cells [2]) was > 350 µM (not active) and the EC50 (cells [3]) was 70 µM (active).

In the case of `CCn1c(CN2CCN(c3ccc(Cl)cc3)CC2)nc2ccccc21`, the IC50 [5] is reported as > 80 µM (inactive).

With `CN1CCN(c2ccc(NC(=O)c3ccc([N+](=O)[O-])o3)cc2Cl)CC1` the AC50 [10] was 9.02 µM (active).

With `CC1=CC2=C(C=O)C(=O)C(C)(O)C(O)C2=CO1` (stereo not given) the EC50 [6] was > 99 µM (inactive) and the EC50 [7] was > 99 µM (inactive).

With `CCOC(=O)/C(C#N)=N\Nc1cc(Cl)ccc1OC` the EC50 [6] was > 99 µM (inactive) and the EC50 [7] was 44.1 µM (inactive).

With `O=[N+]([O-])c1ccc(N/N=C/c2ccccc2)c(F)c1` the CC50 [11] was > 50 µM (active), the EC50 [6] was > 99 µM (inactive) and the EC50 [7] was 27.2 µM (inactive).

In the case of `COc1cc(/C=c2\sc3n(c2=O)CCCN=3)ccc1O`, the IC50 (Large T antigen) is reported as 16.2 µM (active), the AC50 [12] is reported as 4.19 µM (active) and the IC50 [13] is reported as 15.6 µM (active).

For `COc1cc(/C=N/NC(=O)c2ccccc2)ccc1O`, the IC50 (Large T antigen) was 10.5 µM (active) and the IC50 [13] was 29.9 µM (active).

In the case of `NS(=O)(=O)c1ccc(N/N=C/c2ccc[nH]2)c([N+](=O)[O-])c1`, the IC50 (Large T antigen) is reported as 65.5 µM (active).

For `COc1cc(/C=N/Nc2nc(Nc3ccccc3)nc(N3CCOCC3)n2)ccc1OC(=O)c1ccco1`, the EC50 [14] was 0.895 µM (active), the EC50 [15] was 6.73 µM (active) and the IC50 [5] was > 80 µM (inactive).
